Assays:
[1] = molecular target: T1, TRPA1 (Mus musculus, UniProt Q8BLA8); assay: IonWorks Barracuda (IWB) automated patch clamp detection of TRPA1 inhibitory activity; assay type: cell-based
T1 construct: expressed in transfected cells
Description: IonWorks Barracuda (IWB) automated patch clamp detection was used as test method: HEK293 cells stably expressing TRPA1 were placed in the T175 culture flask with DMEM medium containing 15 μg/mL Blasticidin S HCl, 200 μg/mL Hygromycin B and 10% FBS, and cultured in an incubator in 5% CO2 at 37° C. When the cell density reached about 80%, the culture medium was removed, the residue was rinsed once with phosphate buffered saline (PBS) without calcium and magnesium. 3 mL of Trypsin was added to digest for 2 min, 7 mL of culture medium was added to terminate the digestion. The cells were collected to 15 mL centrifuge tube and centrifuged at 800 rpm for 3 min. After the supernatant was removed, the cells were added to appropriate volume of extracellular fluid for re-suspending, and the cell density was controlled at 2-3×10^6/mL for IWB experiment. The formulation of extracellular fluid (in mM) was 140 NaCl, 5 KCl, 1 MgCl2, 10 HEPES, 0.5 EGTA, 10 Glucose (pH 7.4); the formulation of intracellular fluid (in mM) was 140 CsCl, 10 HEPES, 5 EGTA, 0.1 CaCl2), 1 MgCl2 (pH 7.2). 28 mg/mL of amphotericin B was freshly prepared with DMSO on the day of experiment, and then final concentration of 0.1 mg/mL of that was prepared with intracellular fluid.
Population patch clamp (PPC) plate was used in IWB experiment. The entire detection process was automatically carried out by the instrument. […]
The record of data and the export of current amplitude measurement were carried out by IWB software (version 2.5.3, Molecular Devices Corporation. Union City, CA). No statistics was recorded for wells with sealing impedance lower than 20 MΩ. […] TRPA1 current amplitude was measured at ±100 mV. […] The dose-effect curve of compounds and IC50 were fitted and calculated by GraphPad Prism 5.02 (GraphPad Software, San Diego, CA).

[2] = tested on: mice; assay: ICS model in mice (fibromyalgia), mechanical hyperalgesia test; assay type: in vivo; settings: 10 mg/kg oral
Description: Male C57BUJ6 mice weighing 18-22 g at the beginning of experiment were selected. Each cage had 4 mice which were allowed to feed and drink water freely. Each experimental group had 12 mice, and the experimental mice were labeled by tail labeling method.
Day 0: At 4:30 pm, the mice were put in a plexiglass box with stainless steel mesh, and then the plexiglass box was put into a cold storage (4±2° C.) overnight. The mice were allowed to feed freely and agar was used to replace water.
Day 1: At 10:00 am, the mice were delivered to room temperature (24±2° C.) environment for 30 min, and then the mice were delivered to the cold storage for 30 min. The above steps were repeated until 4:30 pm, and the mice were put into the cold storage overnight.
The compounds were administered orally according to the schedule of experiment, and the dosage was 10 mg/kg.
On the fourth day after modeling, the pre-administration mechanical hyperalgesia test was performed on the animals. Animals with PWT value greater than 0.5 g were excluded and were not used for experiments. On the fifth day after modeling, the animals were tested for mechanical hyperalgesia test at 0.5 h, 1 h, and 2 h after the administration of compounds.
The mice were individually placed in a plexiglass box with a grid on the bottom of the box to ensure that the mice paw could be tested. The mice were allowed to adapt for 15 min before the test. After the adaptation was completed, the test fiber was used to test at the center of the left hind paw of mice. The test fiber comprised 8 test strengths: 2.36(0.02 g), 2.44(0.04 g), 2.83(0.07 g), 3.22(0.16 g), 3.61(0.4 g), 3.84(0.6 g), 4.08(1 g), and 4.17(1.4 g). During the test, the test fiber was pressed vertically against the skin and forced to bend for 6-8 s with a 5 s interval between each test. During the test, rapid withdrawal of animal paw was recorded as pain response. When the test fiber was removed from animal skin, the withdrawal of animal paw was also recorded as pain response. If animal moved or walked, the pain response was not recorded, and the test was repeated. In the test. 3.22(0.16 g) was used firstly. […] The maximum strength of tested fiber was 4.17(1.4 g).
Mechanical hyperalgesia was calculated by using the following formula: 50% response threshold (g)=(10^(Xf+k))/10,000; • Xf=the final test fiber value used in the test; • k=table value (Chaplan et al., 1994, page 62); • =mean difference 5. Data Collection and Analysis

[3] = tested on: ICR mice; assay: acetic acid writhing pain model in mice; assay type: in vivo; settings: for frequency of writhing response within 30 min: acetic acid 1 h after administration
Description: Male ICR mice, weighed 22-25 g, were fasted but allowed to drink water freely for 2 h before administration. All ICR mice were weighed and grouped randomly, and the number of animals in each group was greater than 10. […] […] The drug was administrated intragastrically based on the weight of mice. 1.5% acetic acid solution (0.1 ml/10 g) was injected intraperitoneally 1 hour after administration, and the frequency of visceral pain in each group of mice within 30 min was observed. When concave abdomen, stretched trunk and hind paw, and high buttocks appeared, one number point was recorded. Finally, the number of appearance of the above phenomenon was counted within 30 minutes.

T1 sequence (Q8BLA8 whole entry): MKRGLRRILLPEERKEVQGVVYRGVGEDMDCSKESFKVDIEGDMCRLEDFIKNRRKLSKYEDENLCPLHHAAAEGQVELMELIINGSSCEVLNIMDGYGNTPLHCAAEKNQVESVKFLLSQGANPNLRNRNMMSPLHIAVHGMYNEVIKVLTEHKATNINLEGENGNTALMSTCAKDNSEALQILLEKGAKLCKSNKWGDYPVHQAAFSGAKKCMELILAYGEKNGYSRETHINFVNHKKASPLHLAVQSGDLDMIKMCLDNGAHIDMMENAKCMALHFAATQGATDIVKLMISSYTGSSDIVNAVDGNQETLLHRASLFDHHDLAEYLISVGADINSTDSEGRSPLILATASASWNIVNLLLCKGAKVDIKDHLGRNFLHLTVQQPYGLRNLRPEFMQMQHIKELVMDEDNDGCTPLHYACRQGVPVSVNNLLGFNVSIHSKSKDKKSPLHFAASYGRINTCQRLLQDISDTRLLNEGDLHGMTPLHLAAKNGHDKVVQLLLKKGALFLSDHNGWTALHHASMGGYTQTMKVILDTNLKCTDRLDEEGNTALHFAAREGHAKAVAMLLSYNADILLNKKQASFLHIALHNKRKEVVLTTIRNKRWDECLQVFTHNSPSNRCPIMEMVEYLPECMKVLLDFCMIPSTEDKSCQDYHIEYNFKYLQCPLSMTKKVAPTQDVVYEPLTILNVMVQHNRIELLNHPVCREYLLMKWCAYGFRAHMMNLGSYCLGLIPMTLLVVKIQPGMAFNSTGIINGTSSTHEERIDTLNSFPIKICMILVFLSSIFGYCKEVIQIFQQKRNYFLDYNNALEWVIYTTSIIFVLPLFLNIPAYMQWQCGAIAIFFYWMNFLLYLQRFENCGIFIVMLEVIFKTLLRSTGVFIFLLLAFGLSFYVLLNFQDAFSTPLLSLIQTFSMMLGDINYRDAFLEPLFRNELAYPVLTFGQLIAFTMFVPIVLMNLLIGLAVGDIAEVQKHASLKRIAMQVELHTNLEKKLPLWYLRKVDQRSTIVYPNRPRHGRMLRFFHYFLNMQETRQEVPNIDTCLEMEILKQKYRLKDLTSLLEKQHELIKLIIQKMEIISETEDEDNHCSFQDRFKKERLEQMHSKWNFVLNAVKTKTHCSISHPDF

CNCC[C@H](Oc1cccc2ccccc12)c1cccs1 [Duloxetine (S configuration), Duloxetine, reference compound]
IC50 ([1]; HEK293 cells stably expressing TRPA1, AITC-induced current): 10 to 20 µM
PWT(g) Mean ± SD ([2]; 0.5 h after administration): 0.416 ± 0.140 g
PWT(g) Mean ± SD ([2]; 1 h after administration): 0.648 ± 0.155 g
PWT(g) Mean ± SD ([2]; 2 h after administration): 0.530 ± 0.235 g
frequency of writhing response within 30 min ([3]; 10 mg/kg intragastric): 27 times
frequency of writhing response within 30 min ([3]; 20 mg/kg intragastric): 21 times

CNCC[C@H](Oc1cccc2ccoc12)c1cccs1 [IC-1, (S)-3-(Benzofuran-7-yloxy)-N-methyl-3-(thiophen-2-yl)propan-1-amine]
PWT(g) Mean ± SD ([2]; 0.5 h after administration): 0.482 ± 0.199 g
PWT(g) Mean ± SD ([2]; 1 h after administration): 0.773 ± 0.261 g
PWT(g) Mean ± SD ([2]; 2 h after administration): 0.607 ± 0.160 g
frequency of writhing response within 30 min ([3]; 5 mg/kg intragastric): 20 times
frequency of writhing response within 30 min ([3]; 10 mg/kg intragastric): 17 times
half effective dose (EDso) ([3]; acetic acid writhing, intragastric): less than 5 mg/kg

CNCC[C@H](Oc1cccc2c1CCC2)c1cccs1 [IC-10]
activity ratio, IC50 of compound C1/IC50 of compound IC-10 [1]: about 2.5 times

From patent US12492195B2, “Preparation method for and crystal form of 3-aryloxy-3-five-membered heteroaryl-propylamine compound” (Zhangzhou Pien Tze Huang Pharmaceutical Co., Ltd., priority 2020, dated 2025)
